The structures appear in SMILES notation. Where two headings read alike, the source gives them in different places.

The values that follow come from patent publication US20240383915A1, “OXAZEPINE COMPOUNDS AND USES THEREOF IN THE TREATMENT OF CANCER” (Genentech, Inc., priority 2021, published 2024).

The test system of one assay is PC-9 cells. Description: PC9 proliferation assay. Format: cell-based, human. To be noted: read-out: PC9 Prolif IC50 (G12V).
A further assay concerns the target KRas (Homo sapiens (Human), UniProt P01116). The assay can be described thus: KRas GDP HTRF (BODIPY-GDP exchange TR-FRET). Format: biochemical. In outline: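 Inhibition of SOS1-mediated exchange of BODIPY-GDP on KRAS G12D, started with 3 nM recombinant human SOS1 and 300 nM BODIPY-GDP and read after 60 min. TR-FRET excitation 337 nm, ratio 520/490 nm ×10,000. IC50 from 4-parameter Hill fit of normalized data.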
(TR-FRET usually uses a lanthanide donor and a delayed reading to cut background.)

Another assay has as its system SW480 cells. Description: SW480 proliferation assay. The conditions noted are these: read-out: SW480 Prolif IC50 (G12V). Format: cell-based.
A further assay has as its target KRas(G12V) (Homo sapiens (Human), UniProt P01116, G12V). The assay can be described thus: KRas(G12V) GDP HTRF (BODIPY-GDP exchange TR-FRET). Format: biochemical.

KRas(G12V), sequence (P01116-2 other isoform, or with tags, fused parts or gaps G12V): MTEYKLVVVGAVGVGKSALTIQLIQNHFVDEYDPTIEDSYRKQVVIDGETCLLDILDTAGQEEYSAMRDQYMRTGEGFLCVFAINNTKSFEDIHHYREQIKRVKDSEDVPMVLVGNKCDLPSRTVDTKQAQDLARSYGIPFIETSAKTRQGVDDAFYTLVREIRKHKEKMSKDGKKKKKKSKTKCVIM
KRas, sequence (P01116-2 other isoform, or with tags, fused parts or gaps): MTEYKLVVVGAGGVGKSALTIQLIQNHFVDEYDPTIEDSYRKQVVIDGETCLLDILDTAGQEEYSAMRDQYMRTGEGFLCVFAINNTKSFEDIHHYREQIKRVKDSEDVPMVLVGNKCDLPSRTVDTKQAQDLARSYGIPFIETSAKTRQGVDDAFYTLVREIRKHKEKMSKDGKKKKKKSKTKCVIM

A word on the IC50: it is the midpoint of a concentration-inhibition curve. As to `Cc1cc(N)nc(-c2c(Cl)c3c4c(nc(OC[C@@H]5CC[C@H]6COCCN65)nc4c2F)N([C@H](C)c2cncnc2N)CCO3)c1C(F)(F)F` (atropisomer, axis not shown; (aS)) [Example 102a, 5-((R)-1-((R)-9-(6-amino-4-methyl-3-(trifluoromethyl)pyridin-2-yl)-8-chloro-10-fluoro-2-(((6S,8aS)-hexahydro-1H-pyrrolo[2,1-c][1,4]oxazin-6-yl)methoxy)-5,6-dihydro-4H-[1,4]oxazepino[5,6,7-de]quinazolin-4-yl)ethyl)pyrimidin-4-amine], the IC50 in the assay on PC-9 cells (Homo sapiens, PC-9, PC9) is 2200 nM; on KRas it was 0.115 nM; with SW480 cells (Homo sapiens, SW480, SW480), 19 nM; at KRas(G12V), 0.094 nM.

Consider `Cc1cc(N)nc(-c2c(Cl)c3c4c(nc(OC[C@@]56CCCN5C[C@H](F)C6)nc4c2F)N([C@H](C)c2cccnc2N)CCO3)c1C(F)(F)F` (atropisomer, axis not shown; (aS)) [Example 107, (S)-6-(4-((R)-1-(2-aminopyridin-3-yl)ethyl)-8-chloro-10-fluoro-2-(((2R,7aS)-2-fluorotetrahydro-1H-pyrrolizin-7a(5H)-yl)methoxy)-5,6-dihydro-4H-[1,4]oxazepino[5,6,7-de]quinazolin-9-yl)-4-methyl-5-(trifluoromethyl)pyridin-2-amine], for which the IC50 in the assay with PC-9 cells (PC9) is 4000 nM; against KRas, 240 nM; in the assay on SW480 cells (SW480) it was 560 nM; at KRas(G12V), 90 nM.

For the molecule `C[C@H](c1cccnc1N)N1CCOc2c(Cl)c(-c3nc(N)ccc3C(F)(F)F)c(F)c3nc(OC[C@@]45CCCN4C[C@H](F)C5)nc1c23` (atropisomer, axis not shown; (aS)) [Example 108a, 6-((R)-4-((R)-1-(2-aminopyridin-3-yl)ethyl)-8-chloro-10-fluoro-2-(((2R,7aS)-2-fluorotetrahydro-1H-pyrrolizin-7a(5H)-yl)methoxy)-5,6-dihydro-4H-[1,4]oxazepino[5,6,7-de]quinazolin-9-yl)-5-(trifluoromethyl)pyridin-2-amine], the IC50 in the assay on PC-9 cells (Homo sapiens, PC-9, PC9) is 1400 nM; against KRas it was 0.2 nM; in the assay on SW480 cells (Homo sapiens, SW480, SW480), 2 nM; at KRas(G12V), 0.06 nM.

Turning to `C[C@H](c1cccnc1N)N1CCOc2c(Cl)c(-c3nc(N)cc4ccccc34)c(F)c3nc(OC[C@@]45CCCN4C[C@H](F)C5)nc1c23` (atropisomer, axis not shown; (aS)) [Example 113a, 1-((R)-4-((R)-1-(2-aminopyridin-3-yl)ethyl)-8-chloro-10-fluoro-2-(((2R,7aS)-2-fluorotetrahydro-1H-pyrrolizin-7a(5H)-yl)methoxy)-5,6-dihydro-4H-[1,4]oxazepino[5,6,7-de]quinazolin-9-yl)isoquinolin-3-amine], the IC50 with PC-9 cells (Homo sapiens, PC-9, PC9) stood at 7500 nM; on KRas, 0.2 nM; with SW480 cells (Homo sapiens, SW480, SW480), 2.8 nM; at KRas(G12V), 0.09 nM.

In the case of `Cc1cc(N)nc(-c2c(Cl)c3c4c(nc(OC[C@@H]5CC[C@H]6COCCCN65)nc4c2F)N([C@H](C)c2cccnc2N)CCO3)c1C(F)(F)F` (atropisomer, axis not shown; (aS)) [Example 120a, 6-((R)-4-((R)-1-(2-aminopyridin-3-yl)ethyl)-8-chloro-10-fluoro-2-(((7S,9aS)-hexahydro-1H,3H-pyrrolo[2,1-c][1,4]oxazepin-7-yl)methoxy)-5,6-dihydro-4H-[1,4]oxazepino[5,6,7-de]quinazolin-9-yl)-4-methyl-5-(trifluoromethyl)pyridin-2-amine], the IC50 in the assay on PC-9 cells (Homo sapiens, PC-9, PC9) amounted to 2500 nM; against KRas, 0.2 nM; in the assay on SW480 cells (Homo sapiens, SW480, SW480), 28 nM; against KRas(G12V), 0.07 nM.

Turning to `CC(=O)N1CCN2[C@H](COc3nc4c5c(c(Cl)c(-c6nc(N)cc(C)c6C(F)(F)F)c(F)c5n3)OCCN4[C@H](C)c3cccnc3N)CC[C@H]2C1` (atropisomer, axis not shown; (aS)) [Example 123a, 1-((6S,8aS)-6-((((R)-9-(6-amino-4-methyl-3-(trifluoromethyl)pyridin-2-yl)-4-((R)-1-(2-aminopyridin-3-yl)ethyl)-8-chloro-10-fluoro-5,6-dihydro-4H-[1,4]oxazepino[5,6,7-de]quinazolin-2-yl)oxy)methyl)hexahydropyrrolo[1,2-a]pyrazin-2(1H)-yl)ethan-1-one], the IC50 in the assay with PC-9 cells (Homo sapiens, PC-9, PC9) was determined as 6500 nM; against KRas it was 0.15 nM; in the assay on SW480 cells (Homo sapiens, SW480, SW480) it was 30 nM; against KRas(G12V) it was 0.13 nM.

Take `Cc1cc(N)nc(-c2c(Cl)c3c4c(nc(OC[C@@H]5CC[C@H]6CN(S(C)(=O)=O)CCN56)nc4c2F)N([C@H](C)c2cccnc2N)CCO3)c1C(F)(F)F` (atropisomer, axis not shown; (aS)) [Example 125a, 6-((R)-4-((R)-1-(2-aminopyridin-3-yl)ethyl)-8-chloro-10-fluoro-2-(((6S,8aS)-2-(methylsulfonyl)octahydropyrrolo[1,2-a]pyrazin-6-yl)methoxy)-5,6-dihydro-4H-[1,4]oxazepino[5,6,7-de]quinazolin-9-yl)-4-methyl-5-(trifluoromethyl)pyridin-2-amine]: the IC50 turned out to be 3700 nM with PC-9 cells (Homo sapiens, PC-9, PC9); 0.218 nM on KRas; 23 nM with SW480 cells (Homo sapiens, SW480, SW480); 0.12 nM on KRas(G12V).

As to `Cc1cc(N)nc(-c2c(Cl)c3c4c(nc(OC[C@@]56CCCN5C[C@H](F)C6)nc4c2F)N(C)CCO3)c1C(F)(F)F` (single isomer, unassigned) [Example 41a], the IC50 in the assay on PC-9 cells (Homo sapiens, PC-9, PC9) stood at 3800 nM; on KRas, 11 nM; with SW480 cells (Homo sapiens, SW480, SW480), 1000 nM; at KRas(G12V), 1.8 nM.

With `Cc1cc(N)nc(-c2c(Cl)c3c4c(nc(OC[C@@]56CCCN5C[C@H](F)C6)nc4c2F)N(Cc2cccnc2N)CCO3)c1C(F)(F)F` (single isomer, unassigned) [Example 42a], the IC50 in the assay on PC-9 cells (PC9) is 1300 nM; at KRas it was 0.25 nM; with SW480 cells (SW480), 85 nM; at KRas(G12V) it was 0.3 nM.

On to `Cc1cc(N)nc(-c2c(Cl)c3c4c(nc(OC[C@@]56CCCN5C[C@H](F)C6)nc4c2F)N(Cc2cccnc2N)CCO3)c1C(F)(F)F` (single isomer, unassigned) [Example 42b], for which the IC50 in the assay on PC-9 cells (PC9) was determined as 7000 nM; against KRas it was 82 nM; with SW480 cells (SW480) it was 3400 nM; at KRas(G12V), 55 nM.

As for `Cc1cc(N)c(F)c(-c2c(Cl)c3c4c(nc(OC[C@@]56CCCN5C[C@H](F)C6)nc4c2F)N([C@H](C)c2cccnc2N)CCO3)c1C(F)(F)F` (single isomer, unassigned) [Example 73a], the IC50 with PC-9 cells (Homo sapiens, PC-9, PC9) came to 2300 nM; on KRas it was 0.27 nM; with SW480 cells (Homo sapiens, SW480, SW480), 2.6 nM; against KRas(G12V), 0.11 nM.

`Cc1cc(N)c(F)c(-c2c(Cl)c3c4c(nc(OC[C@@]56CCCN5C[C@H](F)C6)nc4c2F)N([C@H](C)c2cccnc2N)CCO3)c1I` (single isomer, unassigned) [Example 74a]: the IC50 in the assay with PC-9 cells (Homo sapiens, PC-9, PC9) stood at 2900 nM; against KRas it was 0.21 nM; in the assay with SW480 cells (Homo sapiens, SW480, SW480), 6 nM; at KRas(G12V) it was 0.09 nM.

For `C[C@H](c1cccnc1N)N1CCOc2c(Cl)c(-c3c(F)ccc4cnn(C)c34)c(F)c3nc(OC[C@@]45CCCN4C[C@H](F)C5)nc1c23` (single isomer, unassigned) [Example 105a], the IC50 was 7100 nM in the assay with PC-9 cells (Homo sapiens, PC-9, PC9); 0.23 nM at KRas; 16 nM with SW480 cells (Homo sapiens, SW480, SW480); 0.08 nM against KRas(G12V).

Consider `Cc1cc(N)nc(-c2cc3nc(OC[C@@]45CCCN4C[C@H](F)C5)nc4c3c(c2Cl)OCCN4Cc2ccn[nH]2)c1C(F)(F)F` [Example 1, 6-(4-((1H-pyrazol-5-yl)methyl)-8-chloro-2-(((2R,7aS)-2-fluorotetrahydro-1H-pyrrolizin-7a(5H)-yl)methoxy)-5,6-dihydro-4H-[1,4]oxazepino[5,6,7-de]quinazolin-9-yl)-4-methyl-5-(trifluoromethyl)pyridin-2-amine], for which the half-inhibitory concentration (IC50) in the assay with PC-9 cells (Homo sapiens, PC-9, PC9) was found to be 18000 nM; against KRas, 46 nM; with SW480 cells (Homo sapiens, SW480, SW480), 12000 nM; against KRas(G12V), 9 nM.

Take `Cc1cc(N)nc(-c2cc3nc(OC[C@@]45CCCN4C[C@H](F)C5)nc4c3c(c2Cl)OCCN4Cc2cn[nH]c2)c1C(F)(F)F` [Example 2, 6-(4-((1H-pyrazol-4-yl)methyl)-8-chloro-2-(((2R,7aS)-2-fluorotetrahydro-1H-pyrrolizin-7a(5H)-yl)methoxy)-5,6-dihydro-4H-[1,4]oxazepino[5,6,7-de]quinazolin-9-yl)-4-methyl-5-(trifluoromethyl)pyridin-2-amine]: the IC50 with PC-9 cells (Homo sapiens, PC-9, PC9) was found to be 7700 nM; against KRas it was 25 nM; in the assay on SW480 cells (Homo sapiens, SW480, SW480) it was 11000 nM; on KRas(G12V) it was 11 nM.

As to `Cc1cc(N)nc(-c2cc3ncnc4c3c(c2Cl)OCCN4[C@H](C)c2cccnc2N)c1C(F)(F)F` [Example 5, (R)-6-(4-(1-(2-aminopyridin-3-yl)ethyl)-8-chloro-5,6-dihydro-4H-[1,4]oxazepino[5,6,7-de]quinazolin-9-yl)-4-methyl-5-(trifluoromethyl)pyridin-2-amine], the IC50 with PC-9 cells (Homo sapiens, PC-9, PC9) was 9000 nM; at KRas, 9.2 nM; in the assay on SW480 cells (Homo sapiens, SW480, SW480) it was 1500 nM; against KRas(G12V), 1.5 nM.

Regarding `Cc1cc(N)nc(-c2cc3ncnc4c3c(c2Cl)OCCN4[C@H](C)c2cncc(N)c2)c1C(F)(F)F` [Example 17, (R)-6-(4-(1-(5-aminopyridin-3-yl)ethyl)-8-chloro-5,6-dihydro-4H-[1,4]oxazepino[5,6,7-de]quinazolin-9-yl)-4-methyl-5-(trifluoromethyl)pyridin-2-amine], the IC50 in the assay with PC-9 cells (Homo sapiens, PC-9, PC9) was 17000 nM; against KRas, 52 nM; with SW480 cells (Homo sapiens, SW480, SW480) it was 8700 nM; on KRas(G12V), 6.1 nM.
